Laboratory results as given in paper doi:10.1101/2023.03.20.532734v1 (bioRxiv, 2023).
Residues, ends and D or L forms follow the SMILES beside them.

Key:
[1] = ref [29], [30]; cited from earlier work
[2] = biological target: T1, WT GLP-2R (Homo sapiens, UniProt O95838); assay: GLP-2R signaling assay, cAMP measurements; format: cell-based
T1 sequence (O95838 1-553): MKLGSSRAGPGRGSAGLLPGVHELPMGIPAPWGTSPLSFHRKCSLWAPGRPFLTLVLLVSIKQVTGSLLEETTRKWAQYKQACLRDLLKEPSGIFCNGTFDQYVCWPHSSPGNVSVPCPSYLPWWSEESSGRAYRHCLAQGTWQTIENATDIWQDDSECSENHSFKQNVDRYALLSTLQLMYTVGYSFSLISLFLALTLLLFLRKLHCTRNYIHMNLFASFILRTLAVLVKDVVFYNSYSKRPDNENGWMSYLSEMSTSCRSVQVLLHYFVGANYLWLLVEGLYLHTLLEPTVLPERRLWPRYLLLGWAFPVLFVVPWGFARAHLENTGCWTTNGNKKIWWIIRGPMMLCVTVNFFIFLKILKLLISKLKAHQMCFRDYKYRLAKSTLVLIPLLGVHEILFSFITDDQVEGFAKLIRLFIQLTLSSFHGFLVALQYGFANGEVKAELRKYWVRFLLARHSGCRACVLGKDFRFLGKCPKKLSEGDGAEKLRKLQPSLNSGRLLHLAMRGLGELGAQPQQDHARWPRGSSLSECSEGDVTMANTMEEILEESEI

## CC[C@H](C)[C@H](NC(=O)[C@H](Cc1ccccc1)NC(=O)[C@H](CC(=O)O)NC(=O)[C@H](CCCN=C(N)N)NC(=O)[C@H](C)NC(=O)[C@H](C)NC(=O)[C@H](CC(C)C)NC(=O)[C@H](CC(N)=O)NC(=O)[C@H](CC(=O)O)NC(=O)[C@H](CC(C)C)NC(=O)[C@@H](NC(=O)[C@@H](NC(=O)[C@H](CC(N)=O)NC(=O)[C@H](CCSC)NC(=O)[C@H](CCC(=O)O)NC(=O)[C@H](CC(=O)O)NC(=O)[C@H](CO)NC(=O)[C@H](Cc1ccccc1)NC(=O)[C@H](CO)NC(=O)CNC(=O)[C@H](CC(=O)O)NC(=O)[C@H](C)NC(=O)[C@@H](N)Cc1cnc[nH]1)[C@@H](C)O)[C@@H](C)CC)C(=O)N[C@@H](CC(N)=O)C(=O)N[C@@H](Cc1c[nH]c2ccccc12)C(=O)N[C@@H](CC(C)C)C(=O)N[C@H](C(=O)N[C@@H](CCC(N)=O)C(=O)N[C@H](C(=O)N[C@@H](CCCCN)C(=O)N[C@H](C(=O)N[C@H](C(=O)N[C@@H](CC(=O)O)C(=O)O)[C@@H](C)O)[C@@H](C)CC)[C@@H](C)O)[C@@H](C)CC [GLP-2, glucagon-like peptide 2]
[1]
  half-life, whole body metabolism in vivo: 7 min

## CC[C@H](C)[C@H](NC(=O)[C@H](Cc1ccccc1)NC(=O)[C@H](CC(=O)O)NC(=O)[C@H](CCCNC(=N)N)NC(=O)[C@H](C)NC(=O)[C@H](C)NC(=O)[C@H](CC(C)C)NC(=O)[C@H](CC(N)=O)NC(=O)[C@H](CC(=O)O)NC(=O)[C@H](CC(C)C)NC(=O)[C@@H](NC(=O)[C@@H](NC(=O)[C@H](CC(N)=O)NC(=O)[C@H](CCSC)NC(=O)[C@H](CCC(=O)O)NC(=O)[C@H](CC(=O)O)NC(=O)[C@H](CO)NC(=O)[C@H](Cc1ccccc1)NC(=O)[C@H](CO)NC(=O)CNC(=O)[C@H](CC(=O)O)NC(=O)[C@H](CO)NC(=O)[C@@H](N)Cc1c[nH]cn1)[C@@H](C)O)[C@@H](C)CC)C(=O)N[C@@H](CC(N)=O)C(=O)N[C@@H](Cc1c[nH]c2ccccc12)C(=O)N[C@@H](CC(C)C)C(=O)N[C@H](C(=O)N[C@@H](CCC(N)=O)C(=O)N[C@H](C(=O)N[C@@H](CCCCN)C(=O)N[C@H](C(=O)N[C@H](C(=O)N[C@@H](CC(=O)O)C(=O)O)[C@@H](C)O)[C@@H](C)CC)[C@@H](C)O)[C@@H](C)CC [GLP-2 Ser2] (H-HSDGSFSDEMNTILDNLAARDFINWLIQTKITD-OH)
[2]
  EC50: 0.265 nM

## CC[C@H](C)[C@H](NC(=O)[C@H](Cc1ccccc1)NC(=O)[C@H](CCC(=O)O)NC(=O)[C@H](CCCCN)NC(=O)[C@H](C)NC(=O)[C@H](C)NC(=O)[C@H](CCC(N)=O)NC(=O)CNC(=O)[C@H](CCC(=O)O)NC(=O)[C@H](CC(C)C)NC(=O)[C@H](Cc1ccc(O)cc1)NC(=O)[C@H](CO)NC(=O)[C@H](CO)NC(=O)[C@@H](NC(=O)[C@H](CC(=O)O)NC(=O)[C@H](CO)NC(=O)[C@@H](NC(=O)[C@H](Cc1ccccc1)NC(=O)[C@@H](NC(=O)CNC(=O)[C@H](CCC(=O)O)NC(=O)[C@H](C)NC(=O)[C@@H](N)Cc1c[nH]cn1)[C@@H](C)O)[C@@H](C)O)C(C)C)C(=O)N[C@@H](C)C(=O)N[C@@H](Cc1c[nH]c2ccccc12)C(=O)N[C@@H](CC(C)C)C(=O)N[C@H](C(=O)N[C@@H](CCCCN)C(=O)NCC(=O)N[C@@H](CCCN=C(N)N)C(=O)NCC(=O)O)C(C)C [GLP-1, glucagon-like peptide 1]
[1]
  half-life, whole body metabolism in vivo: 1 to 2 min
